System: lymphocytic leukemia P388
Experiment: Lymphocytic Leukemia P388 Test
Type: in vivo, BDFl mice
Settings: for Median Survival: mice, 30 days observation; for T/C x 100: ratio of survival time treated/control, 125 or over = significant
Excerpt: Certain in vivo testing systems and protocols have been developed by the National Cancer Institute for testing compounds to determine their suitability as antineoplastic agents. These have been reported in "Cancer Chemotherapy Reports", Part III, Volume 3, No. 2 (1972), Geran, et al. These protocols have established standardized screening tests which are generally followed in the field of testing for antitumor agents. Of these systems, lymphocytic leukemia P388 is particularly significant to the present invention. This neoplasm is utilized for testing as transplantable tumors in mice. Significant antitumor activity shown in this protocol by a percentage increase of mean survival times of the treated(T) animals over the control(C) animals is indicative of similar results in human leukemias and solid tumors.
The animals used were BDFl mice, all of one sex, weighing a minimum of 17 g and all within a 3 g weight range. There were 5 or 6 mice per test group. The tumor transplant was by intraperitoneal injection of 0.5 ml of dilute ascitic fluid containing 10⁶ cells of lymphocytic leukemia P388. The test compounds were administered intraperitoneally at a volume of 0.5 ml in 0.2% Klucel in normal saline on days 1, 5 and 9 (relative to tumor inoculation) at the indicated doses. The mice were weighed and survivors recorded on a regular basis for 30 days. The median survival time and the ratio of survival time for treated(T)/control(C) animals were calculated. The positive control compound for LL-E33288ε-I was 1,4-dihydroxy-5,8-bis[[2-(2-hydroxyethylamino)ethyl]amino]anthraquinone, dihydrochloride (U. S. Patent 4,197,249). The positive control compound for dethiomethylγ₁-I was 1,4-bis[2-(2-hydroxyethylamino)ethylamino]-5,8-dihydroxyanthroquinone dihydrochloride, Lederle Laboratories, Pearl River, New York ("Novantrone"). The controls were given as an intraperitoneal injections in 0.5 ml of 0.2% Klucel on days 1, 5 and 9 at the indicated doses.
If T/C X 100 (%) is 125 or over, the tested compound is considered to have significant anti-tumor activity.

[1] = Dose 0.4 mg/kg intraperitoneally on days 1, 5 and 9
[2] = Dose 0.8 mg/kg intraperitoneally on days 1, 5 and 9
[3] = Dose 1.6 mg/kg intraperitoneally on days 1, 5 and 9

In the case of Cl.Cl.O=C1c2c(O)ccc(O)c2C(=O)c2c(NCCNCCO)ccc(NCCNCCO)c21 [Positive Control, 1,4-dihydroxy-5,8-bis[[2-(2-hydroxyethylamino)ethyl]amino]anthraquinone, dihydrochloride], the “Median Survival” value [1] is reported as 21.5 days, the “T/C x 100” value [1] is reported as 215% and the “Median Survival” value [2] is reported as >30 days. For the same molecule, the “T/C x 100” value [2] was >300%, the “Median Survival” value [3] was 27 days and the “T/C x 100” value [3] was 270%.
